Source: patent publication US5300668A, “Certain esters of 1-(4-X-methylphenyl)cyclopent-3-ene-1-carboxylic acid, wherein X is a trialkylsilyloxy, bromo or hydroxy group, as intermediates” (Pfizer Inc., priority 1993, dated 1994)

What was measured:
mean arterial pressure = experiment: in vivo blood pressure lowering in low sodium diet, furosemide-treated rats; conditions: oral or parenteral dosing; sodium-depleted Sprague-Dawley rats
Procedure: The ability of the compounds of the invention to lower blood pressure in mammals was determined by the following in vivo protocol. Sprague-Dawley rats are placed on a low sodium diet (Purina Labs, 0.07% sodium) for 15 days. On days 11 and 13 of this period, the rats are given furosemide (Lasix, 8 mg/kg, i.m.). On day 13, the animals are anesthetized with a pentobarbital-chloral hydrate mixture (30 mg/kg pentobarbital sodium and 10 mg/kg chloral hydrate, i.p.) and the carotid artery and jugular vein are cannulated using PE50 tubing (Clay-Adams). After a 24 hour recovery period, the animals are injected on day 14 with Lasix (10 mg/kg, i.m.) and are placed in plexiglass chambers for blood pressure recording. […] When possible, blood pressure is also checked after 24 hours. According to this protocol, the compound of the invention is effective in lowering mean arterial pressure at oral dosages from about 0.1 mg/kg to about 30 mg/kg, and at parenteral dosages from about 0.01 mg/kg to about 10 mg/kg, with a duration of action of greater than 24 hours.

rat liver AII receptors = target: T1, rat liver AII receptors (Rattus norvegicus, UniProt P25095); experiment: in vitro AII rat liver binding assay (displacement of 125I SARILE AII); conditions: displacement of 125I SARILE AII from rat liver membranes; assay run with or without BSA; read-out: IC50 (concentration of compound which inhibits binding by 50%)
T1 construct: from tissue; host or cells: liver membranes (100,000 g pellet) of male Sprague-Dawley rats
T1 sequence (P25095 1-359): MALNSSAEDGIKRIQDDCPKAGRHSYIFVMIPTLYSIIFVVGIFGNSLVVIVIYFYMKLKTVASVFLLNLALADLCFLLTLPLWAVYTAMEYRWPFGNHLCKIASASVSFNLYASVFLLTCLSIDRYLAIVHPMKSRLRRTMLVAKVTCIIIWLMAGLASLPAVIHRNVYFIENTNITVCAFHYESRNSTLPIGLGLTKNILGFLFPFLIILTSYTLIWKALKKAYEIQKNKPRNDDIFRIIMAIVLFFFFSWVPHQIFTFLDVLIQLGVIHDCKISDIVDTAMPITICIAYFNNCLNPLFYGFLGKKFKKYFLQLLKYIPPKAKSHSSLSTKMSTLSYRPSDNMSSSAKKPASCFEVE
Procedure: The compound of the present invention is readily adapted to clinical use as a modulator of AII action at the AII receptor. The ability of the compound to modulate AII action was determined by an in vitro AII rat liver binding assay which measures its ability to displace ^125 I sarcosine-1, isoleucine-8, angiotensin II (SARILE AII, obtained from New England Nuclear) from rat liver AII receptors. For this assay, the following materials are used.
Homogenation buffer (10 mM Tris, 0.2M sucrose, 1.0 mM EDTA), prepared using 1.21 g Tris base, […] sucrose and 336 mg EDTA in 1000 ml water, adjusted to pH 7.4 using HCl.
Buffer A (50 mM Tris, 5 mM MgCl2), prepared using 6.05 g Tris base and 1.02 g MgCl2.6H2 O in 1000 ml water.
Assay buffer, prepared using 200 ml Buffer A and 0.5 g BSA. […]
The compound being tested is made up to an initial concentration of 2 mM in 100% DMSO. […] The filters are cut, placed in test tubes and counted on a Gamma Counter. The mean for all triplicate points are calculated and total specific binding is calculated by subtracting nonspecific counts from total counts. Binding in the presence of compound (COUNTS) is calculated by subtracting nonspecific counts from counts in the presence of compound. Percent binding of SARILE All in the presence of compound is calculated by dividing COUNTS by total specific counts. […]

CCc1nc2c(C)cc(C)nc2n1Cc1ccc(C2(C(=O)O)CC=CC2)cc1 [Example 1, 1-[4'-(2"-ethyl-5",7"-dimethylimidazo[4,5-b]pyridin-3-yl)methylphenyl]cyclopent-3-ene-1-carboxylic acid]
duration of action (lowering of mean arterial pressure) (mean arterial pressure): greater than 24 hours | IC50 (rat liver AII receptors): < 100 nM
